Measurements from paper PMC6934184, “Selective DNA-PKcs inhibition extends the therapeutic index of localized radiotherapy and chemotherapy” (The Journal of Clinical Investigation, 2019).

Molecular target: T1, CDC7/DBF4 (Homo sapiens, UniProt O00311)
T1 construct: purchased Thermo Fisher Scientific (Life Technologies) SelectScreen
Assay: SelectScreen LanthaScreen
Format: binding
Conditions: read-out: % displacement
Procedure, shortened: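 NU5455 was profiled across the SelectScreen Broad panel of kinase activity and binding assays. Z'LYTE reactions such as CSF1R ran at apparent Km ATP, while the Adapta CAMK1 assay used ATP listed as 10. Values are given as percent.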

T1 sequence (O00311 whole entry): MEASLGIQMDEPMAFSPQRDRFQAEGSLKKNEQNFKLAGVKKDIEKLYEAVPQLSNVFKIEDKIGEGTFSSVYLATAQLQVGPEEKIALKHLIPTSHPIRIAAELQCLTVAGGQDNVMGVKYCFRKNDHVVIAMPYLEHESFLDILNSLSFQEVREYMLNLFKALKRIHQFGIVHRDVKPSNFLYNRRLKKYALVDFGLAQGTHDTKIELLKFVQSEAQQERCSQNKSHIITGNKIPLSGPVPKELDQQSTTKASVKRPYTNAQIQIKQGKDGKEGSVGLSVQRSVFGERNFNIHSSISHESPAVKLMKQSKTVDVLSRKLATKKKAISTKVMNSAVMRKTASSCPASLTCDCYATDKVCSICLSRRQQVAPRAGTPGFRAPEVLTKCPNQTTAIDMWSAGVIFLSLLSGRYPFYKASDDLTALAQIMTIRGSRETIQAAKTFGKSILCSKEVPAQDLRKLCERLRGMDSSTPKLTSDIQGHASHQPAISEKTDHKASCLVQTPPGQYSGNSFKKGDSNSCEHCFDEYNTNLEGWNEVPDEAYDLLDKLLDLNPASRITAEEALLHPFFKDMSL
T1 sequence (Q9UBU7 whole entry partner): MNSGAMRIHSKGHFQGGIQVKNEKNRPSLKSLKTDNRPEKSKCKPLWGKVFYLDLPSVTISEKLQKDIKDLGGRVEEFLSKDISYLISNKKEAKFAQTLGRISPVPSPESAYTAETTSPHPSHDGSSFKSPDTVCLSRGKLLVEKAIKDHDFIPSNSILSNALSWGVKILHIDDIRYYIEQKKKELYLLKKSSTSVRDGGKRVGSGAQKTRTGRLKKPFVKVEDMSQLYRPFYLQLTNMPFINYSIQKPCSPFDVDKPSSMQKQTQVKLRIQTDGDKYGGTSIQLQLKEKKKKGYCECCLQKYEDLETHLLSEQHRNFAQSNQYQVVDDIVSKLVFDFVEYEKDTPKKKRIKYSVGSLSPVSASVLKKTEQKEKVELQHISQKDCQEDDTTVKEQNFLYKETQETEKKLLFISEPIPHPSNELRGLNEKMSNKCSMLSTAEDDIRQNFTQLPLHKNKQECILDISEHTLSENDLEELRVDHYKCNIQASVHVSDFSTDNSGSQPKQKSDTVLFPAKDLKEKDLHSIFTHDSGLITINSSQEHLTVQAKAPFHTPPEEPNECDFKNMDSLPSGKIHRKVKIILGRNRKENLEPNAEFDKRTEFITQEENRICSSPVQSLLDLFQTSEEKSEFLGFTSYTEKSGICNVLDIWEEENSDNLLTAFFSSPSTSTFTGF

CN(C(=O)CN1CCOCC1)c1ccc2sc3c(-c4cccc5c(=O)cc(N6CC7CCC(C6)O7)oc45)cccc3c2c1 [NU5455]
inhibition at 1 µM: 6%
